Columns and labels:
AKT1 E17K [1] = target: T1, AKT1 E17K (Homo sapiens (Human), UniProt P31749, E17K); experiment: Dissociation rate of Compound A and Compound B by competition with ARQ-092, LCMS; type: binding; conditions: for AKT1 E17K t1/2: compound 5 μM, 15 minutes, then ARQ-092 50 μM, 25 mM HEPES pH 8.0, 150 mM NaCl; for Off-rate Selectivity E17K/WT: ratio of t1/2
Experimental: (§1) Determination of compound dissociation rate by intact protein mass spectrometry:Recombinant AKT1 containing appropriate mutations (1 μM) was treated with inhibitor (5 μM) at room temperature. After 15 minutes, ARQ-092 (50 μM final concentration) was added to prevent aldehyde-containing compound rebinding after initial dissociation. At various timepoints, aliquots were removed and quenched with 5 mM NaBH4 to capture the reversible imine through reductive amination, then analyzed by LCMS. Deconvoluted monoisotopic intensities of unmodified vs. compound-modified mass peaks were compared.
(§2) AKT1(E17K or WT) (1 μM) was incubated with Compound A or Compound B (5 μM) for 15 minutes in 25 mM HEPES pH 8.0, 150 mM NaCl buffer. Then ARQ-092 (50 μM) was added and aliquots quenched with 5 mM NaBH4 at a series of timepoints and the percentage labelling determined by LCMS. FIG. 32A and FIG. 32B provide competition data (dissociation rates) for Compound A and Compound B in both wild-type AKT1 and AKT1 E17K against ARQ-092. Table 8 provides half-life data based on the dissociation studies described herein.
Target sequence in this assay (P31749 2-480 E17K): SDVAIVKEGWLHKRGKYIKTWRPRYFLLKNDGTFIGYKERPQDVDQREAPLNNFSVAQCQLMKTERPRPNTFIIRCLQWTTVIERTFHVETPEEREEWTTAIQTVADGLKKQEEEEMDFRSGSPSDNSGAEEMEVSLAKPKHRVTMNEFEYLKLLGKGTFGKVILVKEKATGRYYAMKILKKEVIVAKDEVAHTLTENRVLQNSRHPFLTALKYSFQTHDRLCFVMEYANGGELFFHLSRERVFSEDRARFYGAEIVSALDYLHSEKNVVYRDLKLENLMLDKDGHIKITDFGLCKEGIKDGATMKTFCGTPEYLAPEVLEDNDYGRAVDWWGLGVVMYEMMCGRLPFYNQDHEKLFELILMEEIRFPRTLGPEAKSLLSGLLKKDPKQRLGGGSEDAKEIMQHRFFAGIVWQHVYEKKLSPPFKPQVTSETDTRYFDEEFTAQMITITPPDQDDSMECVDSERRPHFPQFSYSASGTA

AKT1 WT [2] = target: T2, AKT1 WT (Homo sapiens (Human), UniProt P31749); experiment: as above; type: binding; conditions: compound 5 μM, 15 minutes, then ARQ-092 50 μM; 25 mM HEPES pH 8.0, 150 mM NaCl
Experimental: as §1, §2
Target sequence in this assay (P31749 2-480): as the sequence (P31749 2-480 E17K) above, with K16E counted along it

AKT1 E17K [3] = target: T1, AKT1 E17K; experiment: Live cell target engagement (NanoBRET) in HEK293 cells; type: cell-based; conditions: HEK293, 2 h at 37 C; Table 7
Target sequence in this assay (P31749 whole entry E17K): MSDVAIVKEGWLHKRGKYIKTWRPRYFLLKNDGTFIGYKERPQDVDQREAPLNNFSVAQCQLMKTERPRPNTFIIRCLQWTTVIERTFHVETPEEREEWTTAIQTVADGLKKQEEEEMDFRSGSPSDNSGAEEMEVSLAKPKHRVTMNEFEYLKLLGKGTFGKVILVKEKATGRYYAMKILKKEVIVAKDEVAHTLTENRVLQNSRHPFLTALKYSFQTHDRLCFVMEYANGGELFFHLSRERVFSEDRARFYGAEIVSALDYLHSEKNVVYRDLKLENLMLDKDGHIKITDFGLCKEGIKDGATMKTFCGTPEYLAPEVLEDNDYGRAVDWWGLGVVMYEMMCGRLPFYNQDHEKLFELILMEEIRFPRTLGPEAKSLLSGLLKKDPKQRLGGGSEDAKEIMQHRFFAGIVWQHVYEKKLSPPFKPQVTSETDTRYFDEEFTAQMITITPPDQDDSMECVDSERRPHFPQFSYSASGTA

AKT1 WT [4] = target: T2, AKT1 WT; experiment: as above; type: cell-based; conditions: HEK293, 2 h at 37 C; Table 7
Target sequence in this assay (P31749 whole entry): as the sequence (P31749 whole entry E17K) above, with K17E counted along it

AKT2 = AKT2 (Homo sapiens (Human), UniProt P31751); experiment: as above; type: cell-based; conditions: HEK293, 2 h at 37 C; Table 7
BEAS2B-AKT1(WT) = BEAS2B-AKT1(WT) (Homo sapiens (Human), UniProt P31749); experiment: Washout, target engagement durability in intact cells (in-gel fluorescence); type: cell-based; conditions: incubation 0.5 hr; 21 hours of dilution compared to 1 hour
Experimental: (§3) FIG. 31 illustrates in-gel fluorescence and western blot wash out experiments of BEAS2B-AKT1(WT) and BEAS2B-AKT1(E17K) following incubation of the cells with Compound B for 0.5 hr. Wash out periods were 0 hr, 0.5 hr, 1 hr, 1.5 hr, 3 hrs, and 21 hrs.
(§4) Measurement of target engagement durability in intact cells: Beas-2b cells stably over-expressing either Flag-AKT1 WT or Flag-AKT1 E17K were treated with compound for 30 minutes at 37 C. The media was then aspirated and replaced with fresh media and the cells were incubated at 37° C. At various timepoints, cells were washed with PBS and then lysed in buffer containing 5 mM NaBH4. After 1 h, the lysate was precipitated in MeOH/CHCl3, resuspended in 1% SDS in PBS and then subjected to copper catalyzed click chemistry with TAMRA-biotin-azide. The samples were precipitated again and then resuspended in 1.5× SDS loading buffer, separated by SDS-PAGE and analyzed by in-gel fluorescence and western blot.

BEAS2B-AKT1(E17K) = BEAS2B-AKT1(E17K) (Homo sapiens (Human), UniProt P31749, E17K); experiment: as above; type: cell-based
Experimental: as §3, §4

BEAS2B-AKT1(E17K), sequence (P31749 whole entry E17K): as the sequence (P31749 whole entry E17K) above
AKT2, sequence (P31751 whole entry): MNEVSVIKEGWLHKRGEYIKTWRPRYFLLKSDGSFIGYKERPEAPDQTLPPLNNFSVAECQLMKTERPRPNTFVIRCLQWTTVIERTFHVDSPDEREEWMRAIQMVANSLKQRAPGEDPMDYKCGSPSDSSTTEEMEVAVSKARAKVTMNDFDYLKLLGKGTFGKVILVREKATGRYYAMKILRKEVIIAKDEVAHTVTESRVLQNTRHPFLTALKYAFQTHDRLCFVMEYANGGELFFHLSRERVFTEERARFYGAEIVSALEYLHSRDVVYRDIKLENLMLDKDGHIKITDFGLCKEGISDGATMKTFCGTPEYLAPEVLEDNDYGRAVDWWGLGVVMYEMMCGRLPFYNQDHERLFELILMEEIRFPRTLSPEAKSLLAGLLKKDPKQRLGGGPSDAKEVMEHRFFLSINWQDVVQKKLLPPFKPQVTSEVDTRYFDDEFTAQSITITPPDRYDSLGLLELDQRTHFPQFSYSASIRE
BEAS2B-AKT1(WT), sequence (P31749 whole entry): as the sequence (P31749 whole entry E17K) above, with K17E counted along it

| Compound | AKT1 E17K t1/2 (AKT1 E17K [1]) | Off-rate Selectivity E17K/WT (AKT1 E17K [1]) | AKT1 (WT) t1/2 (AKT1 WT [2]) | IC50 (AKT1 E17K [3]) | IC50 (AKT1 WT [4]) | IC50 (AKT2) | extent of binding to WT-AKT1 after washout (BEAS2B-AKT1(WT)) | extent of binding to E17K AKT1 after washout (BEAS2B-AKT1(E17K); incubation 0.5 hr, 21 hour of washout compared to 1 hour) | selectivity of binding, E17K AKT1 versus WT-AKT1 (BEAS2B-AKT1(E17K); washout experiment) |
| --- | --- | --- | --- | --- | --- | --- | --- | --- | --- |
| C#Cc1cccc(-c2ccc3nc(-c4cccnc4N)n(-c4ccc(CNC(=O)c5ccc(C=O)c(O)c5)cc4)c3n2)c1 [Compound A, N-(4-(2-(2-aminopyridin-3-yl)-5-(3-ethynylphenyl)-3H-imidazo[4,5-b]pyridin-3-yl)benzyl)-4-formyl-3-hydroxybenzamide] | 8.2 min | 1.6 | 5 min | 100 to 500 nM | < 100 nM | > 500 nM | – | – | – |
| C#Cc1cccc(-c2ccc3nc(-c4cccnc4N)n(-c4ccc(CNCCc5ccc(C=O)c(O)c5)cc4)c3n2)c1 [Compound B, 4-(2-((4-(2-(2-aminopyridin-3-yl)-5-(3-ethynylphenyl)-3H-imidazo[4,5-b]pyridin-3-yl)benzyl)amino)ethyl)-2-hydroxybenzaldehyde] | 1037 min | 14.7 | 72.7 min | < 100 nM | 100 to 500 nM | > 500 nM | markedly diminished | roughly equivalent to binding after 1 hour of washout | binds with substantial selectively to K17 in E17K AKT1 |

— US20250115600A1, “COVALENT MODIFIERS OF AKT1 AND USES THEREOF” (Terremoto Biosciences, Inc., priority 2022, published 2025)
